This is an account of results in ChEMBL document CHEMBL3217491, “Design, synthesis and biological evaluation of imidazopyridine/pyrimidine-chalcone derivatives as potential anticancer agents” (2010).

Experiment [1] concerns MCF7. In words: Cell cycle arrest in human MCF7 cells assessed as accumulation at G2/M phase at 4 uM after 24 hrs by propidium iodide staining-based flow cytometry (reference value: 15.79%). In kind it is functional. For orientation: A flow cytometer gives signals particle by particle.
For experiment [2], the system named is MCF7. In words: Induction of apoptosis in human MCF7 cells expressing P21 promoter -145/+8 with luciferase gene assessed as upregulation of p21 protein expression at 4 uM by Western blot analysis relative to control. The class given is functional, cell-based. A general note: Immunoblotting shows a protein as a band on a membrane.
Experiment [3] has as its system MCF7. As to the kind of experiment: Cell cycle arrest in human MCF7 cells assessed as accumulation at S phase at 4 uM after 24 hrs by propidium iodide staining-based flow cytometry (reference value: 20.17%). In kind it is functional.
For experiment [4], the system named is MCF7. As to the kind of experiment: Cell cycle arrest in human MCF7 cells assessed as accumulation at G0/G1 phase at 4 uM after 24 hrs by propidium iodide staining-based flow cytometry (reference value: 64.04%). The class given is functional.
Experiment [5] concerns MCF7. As to the kind of experiment: Growth inhibition of human MCF7 cells assessed as cell viability at 4 uM after 24 hrs by MTT assay. In kind it is functional, cell-based. (In general: Tetrazolium assays rely on reduction of a dye to a coloured formazan, in cell work by metabolically active cells.)

Calls of active or inactive are those of the source. No cut-off for these calls is given here.

For the compound `COc1cccc2c1C(=O)c1c(O)c3c(c(O)c1C2=O)C[C@@](O)(C(=O)CO)C[C@@H]3O[C@H]1C[C@H](N)[C@H](O)[C@H](C)O1` [DOXORUBICIN], the Activity in the experiment with MCF7 [1] is 1.15%; with MCF7 [3], 4%; in the experiment on MCF7 [4], 94.85%. The result in the experiment on MCF7 [2] was Active. Further, in the experiment on MCF7 [5], the inhibition result was “Active”.
